Like-named read-outs stand apart in the source and are kept apart here.
Columns and labels:
Assay type in all cases: cell-based
A172 = test: Cell vitality assay (ATP assay, CellTiter-Glo); conditions: Homo sapiens, A 172; A172, 72 h; Table IIa; read-out: IC50 ATP-Assay after 72 h A172
In short: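 Cells (1000/well) incubated 72 h with test compound, top dose 12.5 μM, twofold dilutions, DMSO as reference. Lysis reagent added, luminescence recorded; background from cell-free medium wells.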

Hs578T = test: Wound healing migration assay; conditions: Homo sapiens, Hs-578T; HS578T cell line; Table Ib
In short: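 Cells seeded at 150000/24 well, grown to monolayer overnight, scratched with a pipette tip, then treated with compound at 12.5, 6.25 or 3.125 μM versus DMSO. Stopped by crystal violet fixation at 48-72 h once control wounds closed; IC50 taken as 50% wound size between t0 and t48 or t72.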

viable cells in culture = test: Cell viability assay at 10 μM (CellTiter-Glo, Table VII); conditions: compound 10 μM, 72 h;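 further: graded A 0-20%; B 21-40%; C 41-60%; D over 60% viable cells relative to DMSO control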
In short: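 Viable cell number was measured with the CellTiter-Glo Luminescent Cell Viability Assay (Promega), following the manufacturer's protocol, which quantifies ATP as a marker of metabolically active cells. In 96-well plates, 1000 cells/well in 100 μl medium were exposed to compound at 10 μM, or to DMSO control, for 72 h. Values were calculated relative to DMSO-control ATP.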

tumor cell = test: Matrigel outgrowth assay/branching assay (Table Va)
In short: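 Step one: Matrigel (3 mg/ml) is set for 1 h at 37° C. Step two: 5000 cells per well go on in medium with compound (0.78–3.125 μM) or DMSO. Step three: images at 48, 72 and 96 h are scored for complete loss of branching.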

[1] = Homo sapiens, HCT-116, HCT116 def, read-out: percentage (%) of viable cells HCT 116def
[2] = Homo sapiens, HCT-116, HCT116 wt, read-out: percentage (%) of viable cells HCT 116wt
[3] = Homo sapiens, HT-29, HT29, read-out: percentage (%) of viable cells HT29
[4] = Homo sapiens, NCI-H358, H358, read-out: percentage (%) of viable cells H358
[5] = Homo sapiens, NCI-H1650, H1650, read-out: percentage (%) of viable cells H1650
[6] = Homo sapiens, NCI-H1666, H1666, read-out: percentage (%) of viable cells H1666
[7] = Homo sapiens, NCI-H1975, H1975, read-out: percentage (%) of viable cells H1975
[8] = Homo sapiens, NCI-H1993, H1993, read-out: percentage (%) of viable cells H1993
[9] = Homo sapiens, A549, read-out: percentage (%) of viable cells A549
[10] = Homo sapiens, HCC827, read-out: percentage (%) of viable cells HCC827
[11] = Homo sapiens, SW480, read-out: percentage (%) of viable cells SW480
[12] = RKO, read-out: percentage (%) of viable cells RKO
[13] = Homo sapiens, C8161 cells, read-out: Total branching inhibition in Matrigel C8161
[14] = Homo sapiens, Hs-578T, Hs578T cells, read-out: Total branching inhibition in Matrigel Hs578T
[15] = U118 cells, read-out: Total branching inhibition in Matrigel U118
[16] = U138 cells, read-out: Total branching inhibition in Matrigel U138

Structure (SMILES)	IC50 (A172) [µM]	IC50 (Hs578T) [µM]	viability at 10 µM (viable cells in culture; [1]) [%]	viability at 10 µM (viable cells in culture; [2]) [%]	viability at 10 µM (viable cells in culture; [3]) [%]	viability at 10 µM (viable cells in culture; [4]) [%]	viability at 10 µM (viable cells in culture; [5]) [%]	viability at 10 µM (viable cells in culture; [6]) [%]	viability at 10 µM (viable cells in culture; [7]) [%]	viability at 10 µM (viable cells in culture; [8]) [%]	viability at 10 µM (viable cells in culture; [9]) [%]	viability at 10 µM (viable cells in culture; [10]) [%]	viability at 10 µM (viable cells in culture; [11]) [%]	viability at 10 µM (viable cells in culture; [12]) [%]	IC50 (tumor cell; [13]) [µM]	IC50 (tumor cell; [14]) [µM]	IC50 (tumor cell; [15]) [µM]	IC50 (tumor cell; [16]) [µM]
COc1cc2c(Oc3ccc(NS(=O)(=O)c4c(Cl)cccc4Cl)cc3F)ccnc2cc1OCCCN1CCCCC1 [Example 6, 2,6-Dichloro-N-{3-fluoro-4-[6-methoxy-7-(3-piperidin-1-yl-propoxy)-quinolin-4-yloxy]-phenyl}-benzenesulfonamide]	≤ 12.5	≤ 12.5	–	–	–	–	–	–	–	–	–	–	–	–	–	–	–	–
COc1cc2c(Oc3ccc(NS(=O)(=O)c4c(F)cccc4F)cc3F)ccnc2cc1OCCCN1CCCCC1 [Example 11, 2,6-Difluoro-N-{3-fluoro-4-[6-methoxy-7-(3-piperidin-1-yl-propoxy)-quinolin-4-yloxy]-phenyl}-benzenesulfonamide]	12.5 to 50	≤ 12.5	–	–	–	–	–	–	–	–	–	–	–	–	–	–	–	–
COc1cc2c(Oc3ccc(NS(=O)(=O)c4cc(Cl)cc(Cl)c4OC)cc3F)ccnc2cc1OCCCN1CCCCC1 [Example 34, 3,5-Dichloro-N-{3-fluoro-4-[6-methoxy-7-(3-piperidin-1-yl-propoxy)-quinolin-4-yloxy]-phenyl}-2-methoxy-benzenesulfonamide]	–	≤ 12.5	21 to 40	0 to 20	21 to 40	0 to 20	21 to 40	21 to 40	0 to 20	0 to 20	> 60	> 60	0 to 20	0 to 20	≤ 5	≤ 5	≤ 5	5 to 50
COc1cc2c(Oc3ccc(NS(=O)(=O)c4cc(Cl)cc(Cl)c4OC)cc3F)ccnc2cc1OCCCN1CCN(C)CC1 [Example 35, 3,5-Dichloro-N-(3-fluoro-4-{6-methoxy-7-[3-(4-methyl-piperazin-1-yl)-propoxy]-quinolin-4-yloxy}-phenyl)-2-methoxy-benzenesulfonamide]	–	–	21 to 40	0 to 20	0 to 20	0 to 20	21 to 40	21 to 40	0 to 20	21 to 40	> 60	41 to 60	0 to 20	41 to 60	≤ 5	≤ 5	≤ 5	5 to 50
COc1cc2c(Oc3ccc(NS(=O)(=O)c4ccccc4[N+](=O)[O-])cc3F)ccnc2cc1OCCCN1CCCC(C)C1 (stereo not shown) [Example 40, N-(3-Fluoro-4-{6-methoxy-7-[3-(3-methyl-piperidin-1-yl)-propoxy]-quinolin-4-yloxy}-phenyl)-2-nitro-benzenesulfonamide]	≤ 12.5	≤ 12.5	–	–	–	–	–	–	–	–	–	–	–	–	–	–	–	–
COc1cc2c(Oc3ccc(NS(=O)(=O)c4ccccc4OC(F)(F)F)cc3F)ccnc2cc1OCCCN1CCCC(C)C1 (stereo not shown) [Example 45, N-(3-Fluoro-4-{6-methoxy-7-[3-(3-methyl-piperidin-1-yl)-propoxy]-quinolin-4-yloxy}-phenyl)-2-trifluoromethoxy-benzenesulfonamide]	≤ 12.5	≤ 12.5	–	–	–	–	–	–	–	–	–	–	–	–	–	–	–	–
COc1cc2c(Oc3ccc(NS(=O)(=O)c4ccc(F)c(F)c4F)cc3F)ccnc2cc1OCCCN1CCCC(C)C1 (stereo not shown) [Example 49, 2,3,4-Trifluoro-N-(3-fluoro-4-{6-methoxy-7-[3-(3-methyl-piperidin-1-yl)-propoxy]-quinolin-4-yloxy}-phenyl)-benzenesulfonamide]	≤ 12.5	≤ 12.5	–	–	–	–	–	–	–	–	–	–	–	–	–	–	–	–
COc1cc2c(Oc3ccc(NS(=O)(=O)c4c(Cl)cccc4Cl)cc3F)ccnc2cc1OCCCN1CCCC(C)C1 (stereo not shown) [Example 51, 2,6-Dichloro-N-(3-fluoro-4-{6-methoxy-7-[3-(3-methyl-piperidin-1-yl)-propoxy]-quinolin-4-yloxy}-phenyl)-benzenesulfonamide]	≤ 12.5	≤ 12.5	–	–	–	–	–	–	–	–	–	–	–	–	–	–	–	–
COc1cc2c(Oc3ccc(NS(=O)(=O)c4ccc(F)c(Cl)c4)cc3F)ccnc2cc1OCCCN1CCCC(C)C1 (stereo not shown) [Example 57, 3-Chloro-4-fluoro-N-(3-fluoro-4-{6-methoxy-7-[3-(3-methyl-piperidin-1-yl)-propoxy]-quinolin-4-yloxy}-phenyl)-benzenesulfonamide]	–	≤ 12.5	21 to 40	> 60	0 to 20	21 to 40	41 to 60	41 to 60	0 to 20	21 to 40	> 60	> 60	0 to 20	0 to 20	5 to 50	≤ 5	≤ 5	≤ 5
COc1cc2c(Oc3ccc(NS(=O)(=O)c4cccc5ccccc45)cc3F)ccnc2cc1OCCCN1CCCC(C)C1 (stereo not shown) [Example 58, Naphthalene-1-sulfonic acid (3-fluoro-4-{6-methoxy-7-[3-(3-methyl-piperidin-1-yl)-propoxy]-quinolin-4-yloxy}-phenyl)-amide]	–	≤ 12.5	21 to 40	0 to 20	0 to 20	21 to 40	> 60	21 to 40	0 to 20	41 to 60	41 to 60	> 60	0 to 20	0 to 20	≤ 5	≤ 5	≤ 5	5 to 50
COc1cc2c(Oc3ccc(NS(=O)(=O)c4ccccc4F)cc3F)ccnc2cc1OCCN1CCOCC1 [Example 81, 2-Fluoro-N-{3-fluoro-4-[6-methoxy-7-(2-morpholin-4-yl-ethoxy)-quinolin-4-yloxy]-phenyl}-benzenesulfonamide]	–	12.5 to 50	21 to 40	21 to 40	21 to 40	0 to 20	21 to 40	21 to 40	0 to 20	21 to 40	41 to 60	0 to 20	0 to 20	41 to 60	≤ 5	≤ 5	5 to 50	5 to 50
COc1cc2c(Oc3ccc(NS(=O)(=O)c4c(F)cccc4F)cc3F)ccnc2cc1OCCN1CCOCC1 [Example 82, 2,6-Difluoro-N-{3-fluoro-4-[6-methoxy-7-(2-morpholin-4-yl-ethoxy)-quinolin-4-yloxy]-phenyl}-benzenesulfonamide]	–	12.5 to 50	21 to 40	0 to 20	0 to 20	21 to 40	21 to 40	41 to 60	21 to 40	0 to 20	> 60	21 to 40	21 to 40	41 to 60	5 to 50	≤ 5	≤ 5	5 to 50
COc1cc2c(Oc3cccc(NS(=O)(=O)c4ccccc4C(F)(F)F)c3)ccnc2cc1OCCCN1CCN(C)CC1 [Example 102, N-(3-{6-Methoxy-7-[3-(4-methyl-piperazin-1-yl)-propoxy]-quinolin-4-yloxy}-phenyl)-2-trifluoromethyl-benzenesulfonamide]	–	≤ 12.5	0 to 20	0 to 20	0 to 20	0 to 20	41 to 60	41 to 60	21 to 40	21 to 40	41 to 60	21 to 40	0 to 20	21 to 40	≤ 5	≤ 5	≤ 5	5 to 50

— patent publication US9169241B2, “Quinolinyloxyphenylsulfonamides” (Max-Planck-Gesellschaft Zur Forderung der Wissenschaften …, priority 2009, dated 2015)
